Reference: US9879049B2, “Glycopeptide antibiotic analogs effective against vancomycin-resistant bacterial strains” (The Scripps Research Institute, priority 2011, dated 2018)
≈ marks a conversion by molar mass, not a printed value. Where two headings read alike, the source gives them in different places.

Legend:
S. Aureus (ATCC 25923) = experiment: MIC by broth microdilution, vancomycin-sensitive S. aureus; format: cell-based; details: Staphylococcus aureus, ATCC25923
Experimental: (§1) S. Aureus (ATCC 25923) and E. Faecalis (BM4166) were propagated and MICs were determined in duplicate by the broth microdilution method according to standard microbiological practice. (Clinical and Laboratory Standards Institute. Methods for Dilution Antimicrobial Susceptibility Tests for Bacteria That Grow Aerobically; Approved Standard, 7th ed.; CLSI document M07-A8; Clinical and Laboratory Standards Institute: Wayne, Pa., 2009.)

N,N′-Ac2-Lys-D-Ala-D-Ala = experiment: Titration binding assay (UV difference) with model D-Ala-D-Ala ligand; details: for ligand, Ka, 6, X = NH: model ligand 6 (D-Ala-D-Ala), 0.02 M sodium citrate buffer pH 5.1; for Ka(6/7): ratio of Ka for ligand 6 (D-Ala-D-Ala) to ligand 7 (D-Ala-D-Lac)
Experimental: (§2) The binding constants for compounds 6 and 8 for association with the model ligands N,N′-Ac2-Lys-D-Ala-D-Ala (2) and N,N′-Ac2-Lys-D-Ala-D-Lac (4) were determined according to literature protocol.^30 UV difference measurements were carried out on a CARY 3E UV-Vis spectrometer. UV scans were run with a baseline correction that consisted of 0.02 M sodium citrate buffer (pH=5.1) and covered the range from 200 to 345 nm. A solution of 6 or 8 (7.7×10^−5M in 0.02 M sodium citrate buffer) was placed into a quartz UV cuvette (0.1 cm path length) and the UV spectrum recorded versus a reference cell containing 0.02 M sodium citrate buffer. UV spectra were recorded after each addition of a solution of N,N′-Ac2-Lys-D-Ala-D-Ala (2) or N,N′-Ac2-Lys-D-Ala-D-Lac (4) in 0.02 M sodium citrate buffer to each cell from 0.1 to 60.0 equivalents. The absorbance value at the λmax was recorded and the running change in absorbance, ΔAx equiv (Ainitial−Ax equiv), measured. The number of ligand equivalents was plotted versus ΔA to afford the ligand binding titration curve. The break point of this curve is the saturation point of the system and its xy coordinates were determined by establishing the intersection of the linear fits of the pre- and post-saturation curves. ΔAsaturation was calculated and employed to determine the concentration of free ligand in solution at each titration point. ΔA was plotted versus ΔA/free ligand concentration to give a Scatchard plot from which the binding constants were determined.
(§3) Titration Binding Assays with Model D-Ala-D-Ala and D-Ala-D-Lac Ligands 6 and 7.
(§4) The binding constants for all compounds for association with the model ligands N,N′-Ac2-Lys-D-Ala-D-Ala (6) and N,N′-Ac2-Lys-D-Ala-D-Lac (7) were determined according to literature protocol. UV difference experiments were carried out on a CARY 3E UV-Vis spectrometer. UV scans were run with a baseline correction that consisted of 0.02 M sodium citrate buffer (pH=5.1) and covered a range from 200 to 345 nm. A solution of the vancomycin aglycon derivative (7.7×10^−5 M in 0.02 M sodium citrate buffer) was placed into a quartz UV cuvette (0.1 cm path length) and the UV spectrum recorded versus a reference cell containing 0.02 M sodium citrate buffer. UV spectra were recorded after each addition of a solution of N,N′-Ac2-Lys-D-Ala-D-Ala (6) or N,N′-Ac2-Lys-D-Ala-D-Lac (7) in 0.02 M sodium citrate buffer to each cell from 0.1 to 60.0 equivalents. The absorbance value at the λmax was recorded and the running change in absorbance, ΔAx equiv (Ainitial−Ax equiv), measured. The number of ligand equivalents was plotted versus ΔA to afford the ligand binding titration curve. The break point of this curve is the saturation point of the system and its xy coordinates were determined by establishing the intersection of the linear fits of the pre and postsaturation curves. ΔAsaturation was calculated and employed to determine the concentration of free ligand in solution at each titration point. ΔA was plotted versus ΔA/free ligand concentration to give a Scatchard plot from which the binding constants were determined.

[1] = amidine group; cited from earlier work
N,N′-Ac2-Lys-D-Ala-D-Lac = experiment: Titration binding assay (UV difference) with model D-Ala-D-Lac ligand; details: for ligand, Ka, 7, X = O: model ligand 7 (D-Ala-D-Lac), 0.02 M sodium citrate buffer pH 5.1
Experimental: Titration Binding Assays with Model D-Ala-D-Ala and D-Ala-D-Lac Ligands 2 and 4.
as §2, §3, §4

[2] = test system: E. faecalis (BM4166, VanA VRE); experiment: MIC by broth microdilution, VanA VRE; format: cell-based; details: for MIC: Enterococcus faecalis, read-out: VanA MIC (minimum inhibitory conc.)
Experimental: E. faecalis (BM4166) was propagated and MIC's were determined in duplicate by the broth microdilution method according to standard microbiological practice. See: Clinical and Laboratory Standards Institute. Methods for Dilution Antimicrobial Susceptibility Tests for Bacteria That Grow Aerobically; Approved Standard, 7th ed.; CLSI document M07-A8; Clinical and Laboratory Standards Institute: Wayne, Pa., 2009. Cudic, M.; Condie, B. A.; Weiner, D. J.; Lysenko, E. S.; Xiang, Z. Q.; Insug, O.; Bulet, P.; Otvos, L., Jr.; Peptides 2002, 23, 271.
as §1

[3] = test system: sensitive bacterial strains; experiment: Activity against sensitive bacterial strains; format: cell-based; details: read-out: MIC against sensitive bacterial strains
[4] = test system: substrate model 3 (X═CH2); details: substrate model 3 (X═CH2) versus model 2; cited from earlier work
[5] = test system: D-Ala-D-Lac, substrate model 4 (X═O); details: cited from earlier work
[6] = test system: Vancomycin-resistant bacteria (VanA and VanB); details: resistant bacteria with D-Ala-D-Lac precursor; cited from earlier work

## CN[C@H](CC(C)C)C(=O)N[C@H]1C(=O)N[C@@H](CC(N)=O)C(=O)N[C@H]2C(=NC#N)NC3C(=O)N[C@H](C(=O)N[C@H](CO)c4cc(O)cc(O)c4-c4cc3ccc4O)[C@H](O)c3ccc(c(Cl)c3)Oc3cc2cc(c3O)Oc2ccc(cc2Cl)[C@H]1O (single isomer, unassigned) [Compound 14]
S. Aureus (ATCC 25923)
  MIC: 10 µg/mL (≈ 8.67 µM)
N,N′-Ac2-Lys-D-Ala-D-Ala; D-Ala-D-Ala bound more effectively than D-Ala-D-Lac
  binding of D-Ala-D-Ala versus D-Ala-D-Lac: ≥ 120 fold
N,N′-Ac2-Lys-D-Ala-D-Ala; relative to 8 or 10
  affinity for D-Ala-D-Ala, fold less than parent amide 8 or amidine 10: 20 fold
[1]
  pKa: 1
N,N′-Ac2-Lys-D-Ala-D-Lac; result in words
  binding of D-Ala-D-Lac: failed to bind
[2]; E. faecalis BM4166, VanA VRE
  MIC: > 40 µg/mL

## CN[C@H](CC(C)C)C(=O)N[C@H]1C(=O)N[C@@H](CC(N)=O)C(=O)N[C@H]2C(=O)N[C@H]3C(=O)N[C@H](C(=O)N[C@H](C(=O)O)c4cc(O)cc(O)c4-c4cc3ccc4O)[C@H](O)c3ccc(c(Cl)c3)Oc3cc2cc(c3O)Oc2ccc(cc2Cl)[C@H]1O [Compound 2, vancomycin aglycone, reference compound]
[3]
  MIC: 0.3 to 2 µg/mL (≈ 0.262 to 1.75 µM)
N,N′-Ac2-Lys-D-Ala-D-Ala
  ligand, Ka, 6, X = NH: 170000 M⁻¹
  Ka(6/7): 1400
N,N′-Ac2-Lys-D-Ala-D-Lac
  ligand, Ka, 7, X = O: 120 M⁻¹
[2]; VRE
  MIC: 640 µg/mL (≈ 559 µM)

## CN[C@H](CC(C)C)C(=O)N[C@H]1C(=O)N[C@@H](CC(N)=O)C(=O)N[C@H]2C(=N)NC3C(=O)N[C@H](C(=O)N[C@H](C(=O)O)c4cc(O)cc(O)c4-c4cc3ccc4O)[C@H](O)c3ccc(c(Cl)c3)Oc3cc2cc(c3O)Oc2ccc(cc2Cl)[C@H]1O [Compound 4, [Ψ[C(═NH)NH]Tpg^4]Vancomycin Aglycon]
N,N′-Ac2-Lys-D-Ala-D-Ala
  ligand, Ka, 6, X = NH: 73000 M⁻¹
  Ka(6/7): 1.05
[1]
  pKa: 12.5
N,N′-Ac2-Lys-D-Ala-D-Lac
  ligand, Ka, 7, X = O: 69000 M⁻¹
[2]; VRE
  MIC: 0.31 µg/mL (≈ 0.271 µM)

## CN[C@H](CC(C)C)C(=O)N[C@H]1C(=O)N[C@@H](CC(N)=O)C(=O)N[C@H]2C(=S)NC3C(=O)N[C@H](C(=O)N[C@H](C(=O)O)c4cc(O)cc(O)c4-c4cc3ccc4O)[C@H](O)c3ccc(c(Cl)c3)Oc3cc2cc(c3O)Oc2ccc(cc2Cl)[C@H]1O [Compound 5, [Ψ[C(═S)NH]Tpg^4]Vancomycin Aglycon]
N,N′-Ac2-Lys-D-Ala-D-Ala
  ligand, Ka, 6, X = NH: 170 M⁻¹
N,N′-Ac2-Lys-D-Ala-D-Ala; result in words, FIG. 3
  binding to D-Ala-D-Ala: completely disrupt binding
N,N′-Ac2-Lys-D-Ala-D-Lac
  ligand, Ka, 7, X = O: 11 M⁻¹
N,N′-Ac2-Lys-D-Ala-D-Lac; result in words, FIG. 3
  binding to D-Ala-D-Lac: completely disrupt binding
[2]; VRE
  MIC: > 640 µg/mL
[2]; result in words, FIG. 3
  antimicrobial activity: lacked any antimicrobial activity

## CN=C1NC2C(=O)N[C@H](C(=O)N[C@H](CO)c3cc(O)cc(O)c3-c3cc2ccc3O)[C@H](O)c2ccc(c(Cl)c2)Oc2cc3cc(c2O)Oc2ccc(cc2Cl)[C@@H](O)[C@@H](NC(=O)[C@@H](CC(C)C)NC)C(=O)N[C@@H](CC(N)=O)C(=O)N[C@@H]13 [Compound 11]
N,N′-Ac2-Lys-D-Ala-D-Ala; D-Ala-D-Ala versus D-Ala-D-Lac, result in words
  relative affinity for ligands 6 and 7: near equal affinities
N,N′-Ac2-Lys-D-Ala-D-Ala; relative to 10
  times less effective than parent amidine 10 at binding D-Ala-D-Ala ligand 6: 30 to 50 times
N,N′-Ac2-Lys-D-Ala-D-Lac; relative to 10
  times less effective than parent amidine 10 at binding D-Ala-D-Lac ligand 7: 30 to 50 times
[2]; E. faecalis BM4166, VanA VRE
  MIC: 20 µg/mL (≈ 17.5 µM)
[2]; relative to parent amidine 10
  fold less potent than 10 against VanA VRE: 60 fold

## CN[C@H](CC(C)C)C(=O)N[C@H]1C(=O)N[C@@H](CC(N)=O)C(=O)N[C@H]2C(=O)N[C@H]3C(=O)N[C@H](C(=O)N[C@H](C(=O)O)c4cc(O)cc(O)c4-c4cc3ccc4O)[C@H](O)c3ccc(c(Cl)c3)Oc3cc2cc(c3O[C@@H]2O[C@H](CO)[C@@H](O)[C@H](O)[C@H]2O[C@H]2C[C@](C)(N)[C@H](O)[C@H](C)O2)Oc2ccc(cc2Cl)[C@H]1O [vancomycin]
[4]
  free energy loss of binding: about 1.5 kcal/mole
[5]; 25° C., substrate model 4 (X═O) versus model 2
  loss in Gibbs free energy of binding ΔG°: 3.1 kcal/mol
[5]; versus D-Ala-D-Ala
  reduction of binding affinity for the altered ligand D-Ala-D-Lac: 1000 fold
[6]
  loss in antimicrobial activity: 1000 fold

## [Ψ-[CH2NH]Tpg^4]vancomycin aglycon [Compound 3, reference compound]
N,N′-Ac2-Lys-D-Ala-D-Ala
  ligand, Ka, 6, X = NH: 4800 M⁻¹
  Ka(6/7): 0.9
N,N′-Ac2-Lys-D-Ala-D-Lac
  ligand, Ka, 7, X = O: 5200 M⁻¹
[2]; E. faecalis BM4166, VanA VRE
  VanA MIC (minimum inhibitory conc.): 31 µg/mL
